# The source made the active and inactive calls. The rule behind the calls is not given here.
# How the values were obtained:
# THP-1 [1] = test: Antiproliferative activity against human THP-1 cells assessed as inhibition of cell growth incubated for 24 hrs by CellTiter-Glo luminescent cell viability assay; format: functional, cell-based; details: THP-1, 24 h
# SJRH30 [2] = test: Antiproliferative activity against human Rh30 cells assessed as inhibition of cell growth incubated for 24 hrs; format: functional, cell-based; details: SJRH30, 24 h
# RD [3] = test: Antiproliferative activity against human RD cells assessed as reduction in live cells at 3.5 uM incubated for 72 hrs by calceinAM/propidium iodide staining based fluorescence microscopy; format: functional, cell-based
# SJRH30 [4] = test: Antiproliferative activity against human Rh30 cells assessed as inhibition of cell growth incubated for 72 hrs; format: functional, cell-based; details: SJRH30, 72 h
# RD [5] = test: Antiproliferative activity against human RD cells assessed as inhibition of cell growth incubated for 72 hrs; format: functional, cell-based
# THP-1 [6] = test: Antiproliferative activity against human THP-1 cells assessed as inhibition of cell growth incubated for 72 hrs by CellTiter-Glo luminescent cell viability assay; format: functional, cell-based; details: THP-1, 72 h
# SJRH30 [7] = test: Antiproliferative activity against human Rh30 cells assessed as inhibition of cell growth incubated for 144 hrs; format: functional, cell-based; details: SJRH30, 144 h
# SJRH30 [8] = test: Induction of apoptosis in human Rh30 cells assessed as increase in caspase 3/7 level at 3.5 uM incubated for 24 hrs; format: functional, cell-based
# SJRH30 [9] = test: Antiproliferative activity against human Rh30 cells assessed as reduction in live cells at 3.5 uM incubated for 24 hrs by calceinAM/propidium iodide staining based fluorescence microscopy; format: functional, cell-based
# RD [10] = test: Antiproliferative activity against human RD cells assessed as inhibition of cell growth incubated for 144 hrs; format: functional, cell-based
# THP-1 [11] = test: Antiproliferative activity against human THP-1 cells assessed as inhibition of cell growth incubated for 144 hrs by CellTiter-Glo luminescent cell viability assay; format: functional, cell-based; details: THP-1, 144 h
# RD [12] = test: Antiproliferative activity against human RD cells assessed as inhibition of cell growth incubated for 24 hrs; format: functional, cell-based
# MDA-MB-231 = test: Antiproliferative activity against human MDA-MB-231 cells assessed as inhibition of cell growth measured after 72 hrs by MTT assay; format: functional, cell-based; details: MDA-MB-231, 72 h
# [13] = target: T1, Histone-lysine N-methyltransferase EHMT2 (Homo sapiens, UniProt Q96KQ7); test: Inhibition of G9a (unknown origin) assessed as reduction in substrate methylation using histone H3 and SAM as substrate measured after 15 to 60 mins by microfluidic capillary electrophoresis analysis
# T1 sequence (Q96KQ7 whole entry): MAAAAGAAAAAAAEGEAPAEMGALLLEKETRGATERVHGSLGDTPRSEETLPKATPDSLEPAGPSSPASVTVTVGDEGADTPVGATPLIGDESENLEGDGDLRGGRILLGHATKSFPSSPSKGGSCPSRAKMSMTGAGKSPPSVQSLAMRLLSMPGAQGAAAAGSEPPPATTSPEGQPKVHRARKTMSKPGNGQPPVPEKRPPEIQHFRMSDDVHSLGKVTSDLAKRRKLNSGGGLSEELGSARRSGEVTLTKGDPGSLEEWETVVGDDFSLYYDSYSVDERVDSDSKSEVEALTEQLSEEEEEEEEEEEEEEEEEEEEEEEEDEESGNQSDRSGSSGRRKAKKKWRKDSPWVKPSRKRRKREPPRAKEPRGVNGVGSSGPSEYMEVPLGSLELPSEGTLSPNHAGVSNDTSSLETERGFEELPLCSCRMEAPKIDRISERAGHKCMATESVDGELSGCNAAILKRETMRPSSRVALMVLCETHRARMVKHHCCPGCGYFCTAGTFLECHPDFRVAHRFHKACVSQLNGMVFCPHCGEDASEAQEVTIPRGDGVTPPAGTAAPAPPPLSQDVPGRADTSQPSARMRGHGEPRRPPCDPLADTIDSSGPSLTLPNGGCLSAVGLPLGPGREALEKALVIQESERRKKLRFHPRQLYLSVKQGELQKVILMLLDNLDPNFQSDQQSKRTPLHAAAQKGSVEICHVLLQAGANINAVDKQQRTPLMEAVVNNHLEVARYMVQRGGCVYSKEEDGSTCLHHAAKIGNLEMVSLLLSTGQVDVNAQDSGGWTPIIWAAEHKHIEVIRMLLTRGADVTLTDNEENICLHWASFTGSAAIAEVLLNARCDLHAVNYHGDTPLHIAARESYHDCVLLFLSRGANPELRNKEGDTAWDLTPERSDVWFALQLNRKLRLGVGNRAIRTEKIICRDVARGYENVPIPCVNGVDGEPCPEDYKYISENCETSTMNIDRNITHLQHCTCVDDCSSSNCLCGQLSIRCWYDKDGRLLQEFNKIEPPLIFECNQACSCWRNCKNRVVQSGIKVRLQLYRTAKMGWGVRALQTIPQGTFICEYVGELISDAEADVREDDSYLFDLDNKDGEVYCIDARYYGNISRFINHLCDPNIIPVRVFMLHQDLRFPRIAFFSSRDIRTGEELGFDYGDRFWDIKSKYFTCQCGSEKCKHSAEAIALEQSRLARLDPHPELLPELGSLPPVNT
# [14] = target: T2, MAO-B (amine oxidase [flavin-containing] B) (Homo sapiens, UniProt P27338); test: Inhibition of human MAO-B using p-tyramine as substrate at 100 uM by fluorimetric analysis relative to control; details: human MAO-B enzyme, probe p-tyramine
# T2 sequence (P27338 whole entry): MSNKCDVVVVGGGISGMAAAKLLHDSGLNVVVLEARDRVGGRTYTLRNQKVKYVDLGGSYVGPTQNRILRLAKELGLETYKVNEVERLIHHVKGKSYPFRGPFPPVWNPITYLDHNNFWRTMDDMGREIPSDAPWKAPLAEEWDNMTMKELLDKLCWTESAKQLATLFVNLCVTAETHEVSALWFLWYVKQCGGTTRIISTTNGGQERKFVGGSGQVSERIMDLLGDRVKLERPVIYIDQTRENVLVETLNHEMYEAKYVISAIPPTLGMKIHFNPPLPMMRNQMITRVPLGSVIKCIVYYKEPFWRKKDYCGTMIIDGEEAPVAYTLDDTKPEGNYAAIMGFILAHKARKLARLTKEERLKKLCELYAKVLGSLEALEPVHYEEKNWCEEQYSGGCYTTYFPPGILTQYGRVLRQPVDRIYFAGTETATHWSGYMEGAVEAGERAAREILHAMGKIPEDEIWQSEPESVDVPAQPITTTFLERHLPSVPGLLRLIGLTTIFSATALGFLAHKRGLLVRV
# [15] = target: Histone-lysine N-methyltransferase EZH2 (Homo sapiens) (UniProt Q15910); test: Inhibition of EZH2 (unknown origin) using [3H]SAM and chicken core histone as substrates at 100 uM incubated for 1 hr relative to control
# Histone-lysine N-methyltransferase EZH2 (Homo sapiens), sequence (Q15910 whole entry, looked up): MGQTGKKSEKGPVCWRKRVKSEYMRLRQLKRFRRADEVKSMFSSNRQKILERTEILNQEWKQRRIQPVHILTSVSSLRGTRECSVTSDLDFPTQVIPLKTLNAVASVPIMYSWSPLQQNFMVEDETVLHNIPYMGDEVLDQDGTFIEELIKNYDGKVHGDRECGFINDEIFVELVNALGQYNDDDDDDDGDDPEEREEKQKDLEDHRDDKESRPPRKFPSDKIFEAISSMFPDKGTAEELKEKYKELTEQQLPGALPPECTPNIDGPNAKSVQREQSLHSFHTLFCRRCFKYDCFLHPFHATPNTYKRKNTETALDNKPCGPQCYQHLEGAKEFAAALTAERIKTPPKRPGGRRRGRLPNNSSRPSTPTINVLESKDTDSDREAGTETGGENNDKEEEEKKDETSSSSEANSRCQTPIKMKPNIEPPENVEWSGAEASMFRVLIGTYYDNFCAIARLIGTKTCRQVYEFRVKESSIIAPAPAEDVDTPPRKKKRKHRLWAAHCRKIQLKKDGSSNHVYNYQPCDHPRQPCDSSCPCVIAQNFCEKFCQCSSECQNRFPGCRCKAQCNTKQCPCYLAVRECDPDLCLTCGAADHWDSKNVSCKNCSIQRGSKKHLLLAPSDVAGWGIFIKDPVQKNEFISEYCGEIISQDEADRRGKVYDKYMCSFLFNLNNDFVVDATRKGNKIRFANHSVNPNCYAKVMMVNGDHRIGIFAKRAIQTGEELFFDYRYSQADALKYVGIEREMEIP
# [16] = target: Histone-lysine N-methyltransferase, H3 lysine-79 specific (Homo sapiens) (UniProt Q8TEK3); test: Inhibition of […] (unknown origin) using [3H]SAM and HeLa oligo nucleosomes as substrates at 100 uM incubated for 1 hr relative to control
# Histone-lysine N-methyltransferase, H3 lysine-79 specific (Homo sapiens), sequence (Q8TEK3 whole entry, looked up): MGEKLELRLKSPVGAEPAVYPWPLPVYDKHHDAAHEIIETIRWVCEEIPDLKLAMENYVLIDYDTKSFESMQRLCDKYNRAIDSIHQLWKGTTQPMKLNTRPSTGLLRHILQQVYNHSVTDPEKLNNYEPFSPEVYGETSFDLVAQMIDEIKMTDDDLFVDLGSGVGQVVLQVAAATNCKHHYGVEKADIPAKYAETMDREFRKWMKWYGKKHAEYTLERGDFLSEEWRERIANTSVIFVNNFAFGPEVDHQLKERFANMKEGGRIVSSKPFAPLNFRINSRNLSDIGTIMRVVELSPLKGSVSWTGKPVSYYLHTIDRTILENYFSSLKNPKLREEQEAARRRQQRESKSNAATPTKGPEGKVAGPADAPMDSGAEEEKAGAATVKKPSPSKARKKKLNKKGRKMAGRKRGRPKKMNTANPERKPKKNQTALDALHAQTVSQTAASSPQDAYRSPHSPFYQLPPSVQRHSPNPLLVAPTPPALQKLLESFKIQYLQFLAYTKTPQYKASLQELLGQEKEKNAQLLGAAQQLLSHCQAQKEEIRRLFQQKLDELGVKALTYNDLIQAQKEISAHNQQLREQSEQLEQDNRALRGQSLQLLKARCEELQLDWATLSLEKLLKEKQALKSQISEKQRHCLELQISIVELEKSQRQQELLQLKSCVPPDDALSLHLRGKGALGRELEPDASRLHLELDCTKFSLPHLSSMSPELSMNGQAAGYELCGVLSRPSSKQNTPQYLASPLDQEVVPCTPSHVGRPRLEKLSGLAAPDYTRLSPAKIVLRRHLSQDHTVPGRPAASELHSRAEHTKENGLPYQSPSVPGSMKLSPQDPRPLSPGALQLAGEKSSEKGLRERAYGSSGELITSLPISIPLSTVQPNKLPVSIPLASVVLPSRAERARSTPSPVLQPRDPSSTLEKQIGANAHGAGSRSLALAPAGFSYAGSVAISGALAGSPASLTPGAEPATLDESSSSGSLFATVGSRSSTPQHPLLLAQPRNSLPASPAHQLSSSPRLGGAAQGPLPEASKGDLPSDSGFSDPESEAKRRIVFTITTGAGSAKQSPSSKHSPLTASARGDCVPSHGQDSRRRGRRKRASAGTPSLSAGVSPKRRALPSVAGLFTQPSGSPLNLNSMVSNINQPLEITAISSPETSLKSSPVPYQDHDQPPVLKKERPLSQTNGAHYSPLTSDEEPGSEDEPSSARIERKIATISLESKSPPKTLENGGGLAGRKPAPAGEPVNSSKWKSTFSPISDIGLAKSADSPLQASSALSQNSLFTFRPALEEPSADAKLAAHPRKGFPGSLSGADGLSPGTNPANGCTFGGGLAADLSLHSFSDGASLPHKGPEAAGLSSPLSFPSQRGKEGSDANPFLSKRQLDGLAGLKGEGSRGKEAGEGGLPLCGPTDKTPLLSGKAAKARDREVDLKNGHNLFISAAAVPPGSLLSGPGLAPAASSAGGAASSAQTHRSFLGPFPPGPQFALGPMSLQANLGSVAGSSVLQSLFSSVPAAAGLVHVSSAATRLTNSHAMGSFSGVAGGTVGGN
# [17] = target: T3, MAO-A (amine oxidase [flavin-containing] A) (Homo sapiens, UniProt P21397); test: Inhibition of human MAO-A using p-tyramine as substrate at 100 uM by fluorimetric analysis relative to control; details: human MAO-A enzyme, probe p-tyramine
# T3 sequence (P21397 whole entry): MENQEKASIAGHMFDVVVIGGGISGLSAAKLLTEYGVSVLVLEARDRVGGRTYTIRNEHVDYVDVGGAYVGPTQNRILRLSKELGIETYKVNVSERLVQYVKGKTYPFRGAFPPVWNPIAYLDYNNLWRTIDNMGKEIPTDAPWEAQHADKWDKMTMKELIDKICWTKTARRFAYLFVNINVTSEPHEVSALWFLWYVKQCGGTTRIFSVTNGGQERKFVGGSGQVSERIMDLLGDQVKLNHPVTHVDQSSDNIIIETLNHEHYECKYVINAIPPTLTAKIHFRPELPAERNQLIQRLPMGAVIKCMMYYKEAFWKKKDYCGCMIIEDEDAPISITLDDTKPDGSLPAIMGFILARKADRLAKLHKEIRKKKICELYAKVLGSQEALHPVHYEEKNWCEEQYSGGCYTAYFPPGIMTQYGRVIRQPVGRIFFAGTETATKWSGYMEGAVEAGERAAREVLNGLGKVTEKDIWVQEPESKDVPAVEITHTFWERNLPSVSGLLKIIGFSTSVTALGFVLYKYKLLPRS
# MV4-11 [18] = test: Induction of cell cycle arrest in human MV4-11 cells assessed as accumulation of cells at G1 phase at 0.2 to […] incubated for 24 hrs; format: functional, cell-based; details: dose 0.2-2.5 µM
# RD [19] = test: Induction of apoptosis in human RD cells assessed as increase in caspase 3/7 level at 4 uM incubated for 24 hrs; format: functional, cell-based
# [20] = target: Lysine-specific histone demethylase 1A (Homo sapiens) (UniProt O60341); test: Inhibition of LSD1 in human MV4-11 cells assessed as increase in CD86 expression level incubated for 24 hrs by qRT-PCR analysis; format: cell-based; details: dose 0.2-1 µM
# [21] = target: Lysine-specific histone demethylase 1A (Homo sapiens) (UniProt O60341); test: Inhibition of LSD1 in human MV4-11 cells assessed as increase in H3K4me2 level at 0.2 to […] incubated for 24 hrs by Western blot analysis; format: cell-based; details: dose 0.2-2.5 µM
# [22] = target: Lysine-specific histone demethylase 1A (Homo sapiens) (UniProt O60341); test: Inhibition of LSD1 in human RD cells assessed as increase in H3K4me2 level at 2 uM incubated for 48 hrs by Western blot analysis; format: cell-based
# SJRH30 [23] = test: Induction of apoptosis in human Rh30 cells assessed as increase in caspase 3/7 level at 4 uM incubated for 24 hrs; format: functional, cell-based
# LSD1/CoREST complex [24] = target: T4, LSD1/CoREST complex (Homo sapiens, UniProt O60341); test: Binding affinity to human LSD1/CoREST assessed as dissociation constant by competitive fluorescence polarization assay; format: protein-complex assay
# MV4-11 [25] = test: Antiproliferative activity against human MV4-11 cells assessed as inhibition of cell growth at […] incubated for 72 to 144 hrs by trypan blue staining based analysis; format: functional; details: dose 2.5 µM, time 72-144 hrs
# [26] = Cytotoxicity against human derived mesenchymal stem cells assessed as residual cell viability at 1.25 uM measured after 72 hrs relative to control; format: toxicity, cell-based; details: read-out: Activity
# LSD1/CoREST complex [27] = target: T4, LSD1/CoREST complex; test: Inhibition of human LSD1/CoREST using histone H3 peptide as substrate by fluorescence polarization assay; format: protein-complex assay
# [28] = target: Lysine-specific histone demethylase 1A (Homo sapiens) (UniProt O60341); test: Inhibition of LSD1 in human Rh30 cells assessed as increase in H3K4me2 level at 2 uM incubated for 48 hrs by Western blot analysis; format: cell-based
# SJRH30 [29] = test: Antiproliferative activity against human Rh30 cells assessed as reduction in live cells at 4 uM incubated for 24 hrs by calceinAM/propidium iodide staining based fluorescence microscopy; format: functional, cell-based
# RD [30] = test: Antiproliferative activity against human RD cells assessed as reduction in live cells at 4 uM incubated for 72 hrs by calceinAM/propidium iodide staining based fluorescence microscopy; format: functional, cell-based
# MV4-11 [31] = test: Induction of apoptosis in human MV4-11 cells assessed as accumulation of cells at sub-G1 phase incubated for 24 hrs; format: functional, cell-based; details: dose 0.2-25 µM, DDE = dose-dependent effect
SMILES,IC50 (THP-1 [1]),IC50 (SJRH30 [2]),IC50 (SJRH30 [4]),IC50 (RD [5]),IC50 (THP-1 [6]),IC50 (SJRH30 [7]),IC50 (RD [10]),IC50 (THP-1 [11]),IC50 (RD [12]),IC50 (MDA-MB-231),Ki [13],further results
COc1cc2c(NC3CCN(C(C)C)CC3)nc(C3CCCCC3)nc2cc1OCCCN1CCCC1,0.84 µM,5.01 µM,2.64 µM,3.05 µM,0.34 µM,2.48 µM,2.91 µM,0.24 µM,11.2 µM,3.56 µM,,Activity (RD [3]): Active; Activity (SJRH30 [8]): Active; Activity (SJRH30 [9]): Active
COc1cc2nc(NCCCN(C)C)nc(NC3CCN(CCCc4ccccc4)CC3)c2cc1OC,0.49 µM,,,,0.39 µM,,,0.22 µM,,0.8 µM,0.69 µM,inhibition at 100 µM [14]: 0.3%; inhibition [15]: 2.9%; inhibition [16]: 30.3%; inhibition at 100 µM [17]: 7.4%
C#CCN(C)CCCNc1nc(NC2CCN(Cc3ccccc3)CC2)c2cc(OC)c(OC)cc2n1,0.42 µM,1.76 µM,1.53 µM,1.92 µM,0.34 µM,1.42 µM,1.42 µM,0.16 µM,4.56 µM,3.4 µM,26.1 µM,"Activity (MV4-11 [18]): Active; Activity (RD [19]): Active; inhibition [20]: Active; inhibition [21]: Active; inhibition [22]: Active; Activity (SJRH30 [23]): Active; Kd (LSD1/CoREST complex [24]): 0.064 µM; inhibition (MV4-11 [25]): Active; viability at 72 h, 1.25 µM [26]: 96%; Ki (LSD1/CoREST complex [27]): 0.153 µM; inhibition [28]: Active; Activity (SJRH30 [29]): Active; Activity (RD [30]): Active; Activity (MV4-11 [31]): Dde"
